Results: patent US7790731B2 (Banyu Pharmaceutical Co. Ltd., priority 2005, dated 2010)

How the values were obtained:
[1] = Thermal and light stability compared with the amorphous compound; assay type: physicochemical; settings: as compared with amorphous compound
male SD rats = test: Intracerebral histamine release promotion test; assay type: in vivo; settings: 30 mg/kg orally, Pargyline-treated male SD rats, 2 hours after administration
Description: A histamine 3 receptor antagonist or inverse-agonist is reported to promote histamine release at the nerve end presynaptic region in a brain. For the purpose of investigating the effect of the medicine of the invention on these, a test compound suspended in an aqueous 0.5% methyl cellulose solution was orally administered to male SD rats (7 to 10-week age, 200 to 300 g) treated with a monoamine oxidase inhibitor (Pargyline). 2 hours after the medicine administration, the rats were killed in euthanasia, and the brain tissue was rapidly taken out. According to a Miyamoto et al's method, the concentration of histamine and its main metabolite, tele-methylhistamine in the brain tissue was measured [see Analytical Biochemistry, Vol. 334, p. 89 (2004)].

## Cc1nc2cccc(C(F)(F)F)c2c(=O)n1-c1ccc(OCCCN2CCCC2)cc1 [form I crystal, 2-methyl-3-{4-[3-(1-pyrrolidinyl)propoxy]phenyl}-5-trifluoromethyl-4(3H)-quinazolinone]
[1]
  light stability: excellent
  thermal stability: excellent
Male SD rats
  brain tele-methylhistamine level: significantly increased
